± gives the expanded uncertainty stated by the source.
Conditions: Liquid

`CCCC(=O)OCC` [ethyl butanoate] and `CCCCC(=O)OCC` [ethyl pentanoate] are within error of each other in Critical pressure: 2891.5 ± 300 kPa for the first, 2730.4 ± 300 kPa for the second.

`CCOC(C)=O` [ethyl acetate] and `CCOC(=O)CC` [ethyl propanoate] are within error of each other in Critical pressure: 3828.9 ± 300 kPa for the first, 3385.6 ± 300 kPa for the second.

Compared with `C/C=C/C(=O)OCC` [ethyl trans-2-butenoate], `CCCCCC(=O)OCC` [ethyl hexanoate] is lower in Critical pressure: 3670.8 ± 300 kPa for the first, 2531.3 ± 300 kPa for the second.

Going from `O=C=O` [carbon dioxide] to `CCCCCCC(=O)OCC` [ethyl heptanoate], the Critical pressure falls from 7379.8 ± 300 kPa to 2356.9 ± 300 kPa.

Molecule `CCCCCCCC(=O)OCC` [ethyl octanoate] has a Critical pressure of 2159.2 ± 300 kPa.

Going from `CCCC(=O)OCC` [ethyl butanoate] to `CCCCC(=O)OCC` [ethyl pentanoate], the Critical temperature rises from 569.98 ± 3.7 K to 594.02 ± 3.7 K.

Compared with `CCOC(C)=O` [ethyl acetate], `CCOC(=O)CC` [ethyl propanoate] is higher in Critical temperature: 523.29 ± 3.7 K for the first, 546.28 ± 3.7 K for the second.

First: C/C=C/C(=O)OCC [ethyl trans-2-butenoate]
Second: CCCCCC(=O)OCC [ethyl hexanoate]
The Critical temperature of the first is lower: 593.84 ± 3.7 K for the first, 615.22 ± 3.7 K for the second.

Compared with `O=C=O` [carbon dioxide], `CCCCCCC(=O)OCC` [ethyl heptanoate] is higher in Critical temperature: 304.3 ± 3.7 K for the first, 635.12 ± 3.7 K for the second.

For `CCCCCCCC(=O)OCC` [ethyl octanoate], the Critical temperature was 655.74 ± 3.7 K.

Reference: the NIST ThermoML archive (doi:10.1021/je5002494)
